Data on one compound can be found in patent publication US20260284074A1, “ENT1 Inhibitors in Combination with Checkpoint Inhibitors” (iTeos Belgium SA, priority 2023, published 2026).

The structures appear in SMILES notation.

One assay relates to ENT1. Nature of the assay: ENT1 expression (FIG. 28C). It counts as cell-based, human. Here is the method: FIGS. 28A, 28B, and 28C show the results of an experiment whereby human tumors were dissociated, and cells were CFSE-labelled and stimulated with CD3/CD28 microbeads and IL-2 in the presence of 500 μM of ATP as a source of adenosine. FIGS. 28A and 28B show data of Compound 1-mediated rescue of CD8+ T cell proliferation and TNF, IFNγ, and granzyme B, respectively, from dissociated tumor cell suspension cultures. Symbols represent each donor, bars are group mean±s.d. One-way RM ANOVA with Tukey's multiple comparisons test.

A further assay deals with human T cells. Nature of the assay: CMV pp65 peptide-specific T cell expansion and antigen-specific killing with ATP. It counts as cell-based. The conditions noted are these: 300 μM ATP as a source of adenosine. As for the experimental part:
FIGS. 29A and 29B show the results of an experiment whereby human T cells were activated in the presence of 300 μM ATP and Compound 1, anti-PD-1, or Compound 1 and anti-PD-1.
Human T cells were activated in the presence of 300 μM ATP and Compound 1, anti-PD-1, or Compound 1 and anti-PD-1. CD8+ T cell population was monitored by tetramer-positive (Tet+) staining data. […] (See FIGS. 29A-29B).

As for `COc1cc(C(=O)O[C@@H]2CCCOc3cc(cc(OC)c3OC)C(=O)NCCCN3CCCN(CC2)CC3)cc(OC)c1OC` [Compound 1, (12R)-7^4,7^5-dimethoxy-6-oxo-8-oxa-5-aza-1(1,4)-diazepana-7(1,3)-benzenacyclotetradecaphane-12-yl 3,4,5-trimethoxybenzoate], in the assay on ENT1, the ENT1 expression result is “suppresses”. Moreover, the Antigen-specific killing activity entry with human T cells was “restoration”. In addition, the “CMV pp65 peptide-specific T cell expansion” value in the assay on human T cells (tetramer-positive CD8+ T cells) is recorded as “restores”.
